The source of these data is patent EP0269017B1, “Therapeutic combination of free-radical scavenger or metabolic inhibitor and biologically active protein” (CETUS ONCOLOGY CORPORATION, priority 1986, dated 1988).

In data set [1] the test system is Meth-A tumor cells. Put plainly: TNF mutein and aspirin in mice with Meth-A tumor (Example 4). The method, then: Female Balb/c mice were treated by subcutaneous implantation of Meth-A tumor cells as described in Example 1. Five mice per group were employed. Treatment was initiated seven days after the implantation.
A protocol was employed wherein aspirin or the TNF mutein of Example 1 alone, or aspirin together with the TNF mutein, were administered intravenously. In the combination group, aspirin was administered daily for five days and each dose was followed 1-4 hours later by TNF. PBS was used as a control.
The headings are defined in the footnotes of Table I. TABLE V

Data set [2] deals with Meth-A tumor cells. The data set is described as follows: TNF mutein with NDGA, aspirin or both in mice with Meth-A tumor (Example 5). The settings on record: no TNF, aspirin 30 mg/kg i.v. and/or NDGA 15.6 mg/kg i.p. every third day 3 times; for △TW: day 14. As for the experimental part: Female Balb/c mice were treated by subcutaneous implantation of Meth-A tumor cells as described in Example 1.
Details of the protocols are in the footnotes of Table VI. PBS was used as a control. Results were evaluated 14 days after initiation of treatment. The headings are defined in the footnotes of Table I. TABLE VI

The test system of data set [3] is Meth-A tumor cells. The data set is described as follows: TNF mutein and BSO in mice with Meth-A tumor (Example 3). The class given is in vivo, Female Balb/c mice. Particulars: BSO 1.25 g/kg alone, i.p. twice daily for ten days. As for the experimental part: Female Balb/c mice were implanted subcutaneously with Meth-A tumor cells as described in Example 1. Treatment was initiated seven days after the implantation.
A protocol was employed wherein BSO or the TNF mutein of Example 1 alone, or BSO together with the TNF mutein, were administered. BSO was administered intraperitonally and TNF intravenously. The BSO was started 24 hours prior to TNF administration twice daily (6-8 hours between doses) for ten days and TNF was given with the second BSO dose every third day for three times. BSO excipient was used as a volume control in the TNF alone groups. PBS was used as a control. The protocol is illustrated below: [formula]
Table III illustrates the results of this study, with the headings defined in the footnotes to Table II. The numbers in parentheses indicate the results from a repeat of the experiment.

For data set [4] the following is noted: Smith et al., cited from earlier work.
Data set [5] deals with methylcholanthrene-induced murine fibrosarcoma (Meth-A). The class given is in vivo, Female Balb/c mice. Particulars: uric acid 25 mg/kg alone, i.v. every third day three times. The text has this:
Female Balb/c mice (Charles River Breeding Laboratories, Inc., Wilmington, MA) that were all 6-8 weeks old were employed in the in vivo tests. Animals were weight matched at 20 ± 3 g, randomized at five per cage, and ear-notched. All animals were held in quarantine observation for seven days after arrival, maintained in microisolator cages (Lab Products, Inc.), and fed standard laboratory diets and drinking water ad lib.
A mutein of human TNF-α having the first eight amino acids deleted from the N-terminus was prepared as described In U.S. Patent No. 4,677,064 Issued June 30, 1987 and Wang et al., Science (1985) 228:149-153. Briefly, TNF was induced from HL-60 cells and purified and sequenced. Then an intronless sequence encoding human TNF was prepared by producing enriched mRNA, constructing a cDNA library, selecting a probe and probing the library to recover the sequence. Then an ATG start codon was introduced immediately preceding the GTC sequence encoding N-terminal valine of the mature protein by site-directed mutagenesis. Clones were selected and strands ligated into expression vectors to obtain prokaryotic expression of the mutein. […]
The uric acid dose was slightly below the maximum concentration attainable without decreasing animal weight, determined in a preliminary toxicity study, and was given immediately prior to the TNF inoculation. […]

In data set [6] the test system is Meth-A tumor cells. The class given is in vivo, Female Balb/c mice. Particulars: uric acid 25 mg/kg alone, i.v. once daily for five days. As for the experimental part:
(§1) Female Balb/c mice were implanted subcutaneously with Meth-A tumor cells as described in Example 1.
An IL-2 mutein, designated des-ala₁-IL2-ser125 (with no alanine at position 1 of the mature IL-2 molecule and a serine at position 125 of the mature IL-2 molecule), was prepared by the method described in U.S. Patent No. 4,518,584, supra, isolated from refractile bodies in accordance with the procedure described in EP-A-0 206 828, published December 30, 1986, and formulated as described in U.S. Patent No. 4,604,377 in sodium dodecyl sulfate.
Table IX indicates the results obtained when the IL-2 mutein described herein alone, uric acid alone, and various combination injections of the IL-2 mutein and uric acid were administered intravenously to five mice per group (2-3 repeats) beginning seven days after tumor implantation and once daily for five days, with the uric acid being administered immediately prior to (about 10 minutes) the IL-2 administration when both were administered. Final measurements were made on day 14. The excipient control was injected with PBS. The uric acid doses were all 25 mg/kg of mice weight.

For data set [7], the system named is Meth-A tumor cells. Put plainly: TNF mutein and vitamin C in mice with Meth-A tumor (Example 2). Format: in vivo, Female Balb/c mice. The settings on record: for % Control △BW / Cures (△TW=0, or no visible tumor after 21 days from start of treatment) / Deaths / % Control △TW: i.v. every third day for three injections; for % Control △BW / % Control △TW: day 14.
Description: as §1

Where [8] appears, read: aspirin 30 mg/kg alone, i.v., 14 days after treatment began.
Setting [9] is: Vit.C 7 mg/kg, TNF 125 µg/kg where given.
Where [10] appears, read: Vit.C 35 mg/kg, TNF 125 µg/kg where given.
Where [11] appears, read: Vit.C 70 mg/kg, TNF 125 µg/kg where given.

Molecules are shown by their SMILES. Like-named read-outs stand apart in the source and are kept apart here.

Take `CC(=O)Oc1ccccc1C(=O)O` [Aspirin]: in the data set with Meth-A tumor cells [1] (aspirin 30 mg/kg alone, i.v.), the Cures is 0/5 and the Deaths was 0/5. Moreover, in the data set on Meth-A tumor cells [1] (setting [8]), the “△BW” value came to 1.34 and the “△TW” value stood at 66.6. Further, the “toxicity of aspirin alone” value with Meth-A tumor cells [1] (aspirin 30 mg/kg, single dose or once a day for five days) is on record as “non-toxic”. Also, in the data set with Meth-A tumor cells [2], the Cures is 0/5 and the “△TW” value is on record as 60.3. For the same compound, the Deaths in the data set on Meth-A tumor cells [2] (NDGA cell adds (1 tumor death d. 14), aspirin + NDGA cell adds (d. 5)) was 0/5.
`CCCCS(=N)(=O)CCC(N)C(=O)O` (stereo not drawn) [BSO, Buthionine Sulphoximine]: in the data set on Meth-A tumor cells [3], the “Cures (no palpable tumor on day 14)” value is listed as 0/10 and the Deaths was 0/10. Besides, the “△TW” value with Meth-A tumor cells [3] (mean values) is listed as 29.8. Also, the “△BW” value with Meth-A tumor cells [3] (mean values of two experiments) amounted to 1.19. For the same compound, the toxicity result in data set [4] (400-800 mg/kg of BSO orally every eight hours, fifteen doses) is recorded as “toxic”. The toxicity result in data set [4] (fifteen doses of 100 mg/kg/dose of BSO orally every eight hours, Proceedings of AACR, 28 (March 1987), p. 440) was “relatively non-toxic”.
Turning to `CC(Cc1ccc(O)c(O)c1)C(C)Cc1ccc(O)c(O)c1` (stereo not drawn) [NDGA, nordihydroguaiaretic acid (4,4'-[2,3-dimethyl-1,4-butanediyl]-bis[1,2-benzenediol])], in the data set on Meth-A tumor cells [2], the Cures is recorded as 0/5 and the “△TW” value amounted to 50.8.
For `O=c1[nH]c(=O)c2[nH]c(=O)[nH]c2[nH]1` [Uric acid, uric acid], in data set [5], the “Cures (△TW=0, or no visible tumor after 21 days from start of treatment)” value is given as 0/14 and the “△TW (ratio of mean tumor volume at 14 days to start of treatment)” value worked out at 51.7 ± 17.7. For the same compound, the Cures in the data set on Meth-A tumor cells [6] was 0/5. Besides, the “△TW” value in the data set with Meth-A tumor cells [6] (day 14) stood at 42.3.
Turning to `O=C1O[C@H]([C@@H](O)CO)C(O)=C1O` [Vit.C, Ascorbic Acid], the “% Control △BW” value with Meth-A tumor cells [7] (Vit.C 7 mg/kg, TNF 125 µg/kg immediately after where given) worked out at 92%. In the data set with Meth-A tumor cells [7] (setting [9]), the “Cures (△TW=0, or no visible tumor after 21 days from start of treatment)” value is 0/5; the Deaths was 0/5; the “% Control △TW” value was found to be 76%. In the data set with Meth-A tumor cells [7] (setting [10]), the “Cures (△TW=0, or no visible tumor after 21 days from start of treatment)” value is recorded as 0/5; the Deaths is 0/5; the “% Control △BW” value was 100%; the “% Control △TW” value amounted to 88%. In the data set with Meth-A tumor cells [7] (setting [11]), the “Cures (△TW=0, or no visible tumor after 21 days from start of treatment)” value is given as 0/5; the Deaths was 0/5; the “% Control △BW” value stood at 96%; the “% Control △TW” value came out at 74%. Further, the “toxicity of vitamin C alone” value with Meth-A tumor cells [7] (at the three doses tested (7, 35, 70 mg/kg)) is reported as “non-toxic”.
